The values below come from patent publication US20050124607A1, “5-Substituted quinazolinone compounds useful as alpha 1A/B adrenergic receptor antagonists” (priority 2003, published 2005).

Structures can show the parent of a compound that is named as a salt.

Take `COc1cc2[nH]c(N3CCN(c4cc(C)ccn4)CC3)nc(=O)c2c(C)c1OC` (as salt: HCl) [Example 43, 6,7-Dimethoxy-5-meth-yl-2-[4-(4-methyl-py-ridin-2-yl)-piperazin-1-yl]-1H-quina-zolin-4-one]: the melting point fell in the range of 277.7 to 280 °C.

For `COc1cc2[nH]c(N3CCN(c4cccc(C)n4)CC3)nc(=O)c2c(C)c1OC` [Example 42, 6,7-Dimethoxy-5-meth-yl-2-[4-(6-methyl-py-ridin-2-yl)-piperazin-1-yl]-1H-quina-zolin-4-one], the melting point lay in the range of 284.5 to 285.5 °C.

In turn, `COc1cc2[nH]c(N3CCCN(C(=O)N4CCOCC4)CC3)nc(=O)c2c(C)c1OC` (as salt: HCl) [Example 137, 6,7-Dimethoxy-5-meth-yl-2-[4-(morpho-line-4-carbo-nyl)-[1,4]diazepan-1-yl]-1H-quina-zolin-4-one] returned a melting point of 236.6 to 237.7 °C.

Consider `COc1cc2[nH]c(N3CCc4c(cccc4/N=C(\C)N(C)C)C3)nc(=O)c2c(OC)c1OC` [Example 122, N,N-Dimethyl-N′-[2-(5,6,7-tri-methoxy-4-oxo-1,4-di-hydro-quinazolin-2-yl)-1,2,3,4-tetra-hydro-iso-quinolin-5-yl]-acetamidine], for which the melting point is 223.5 to 226.6 °C.

Regarding `COc1cc2[nH]c(N3CCC(OCc4ccccc4S(=O)(=O)N(C)C)CC3)nc(=O)c2c(OC)c1OC` [Example 77, N,N-Dimethyl-2-[1-(5,6,7-tri-methoxy-4-oxo-1,4-di-hydro-quinazolin-2-yl)-pipe-ridin-4-yloxy-methyl]-benzene-sulfonamide], the melting point was in the range of 186 to 188.2 °C.

`COc1cc2c(cc1OC)CN(c1nc(=O)c3c(Oc4ccccc4)c(OC)c(OC)cc3[nH]1)CC2` [Example 113, 2-(6,7-Dimethoxy-3,4-di-hydro-1H-isoquinolin-2-yl)-6,7-di-methoxy-5-phe-noxy-1H-quinazolin-4-one] came in with a melting point of 238.7 to 241.9 °C.

`COc1cc2c(cc1OC)CN(c1nc(=O)c3c(Cl)c(OC)c(OC)cc3[nH]1)CC2` [Example 134, 5-Chloro-2-(6,7-di-methoxy-3,4-dihydro-1H-iso-quinolin-2-yl)-6,7-di-methoxy-1H-quinazolin-4-one] came in with a melting point of 255.4 to 259.9 °C.

`CCCC(=N)Nc1cccc2c1CCN(c1nc(=O)c3c(OC)c(OC)c(OC)cc3[nH]1)C2` [Example 115, N-[2-(5,6,7-Trimethoxy-4-oxo-1,4-di-hydro-quina-zolin-2-yl)-1,2,3,4-tetra-hydro-isoquinolin-5-yl]-butyramidine] returned a melting point of 192.2 to 193.5 °C.

Compound `COc1cc2[nH]c(N3CCc4c(cccc4/N=C4\CCCN4C)C3)nc(=O)c2c(C(C)C)c1OC` [Example 9, 5-Isopropyl-6,7-di-methoxy-2-{5-[1-meth-yl-pyrolidin-(2E)-ylidene-amino]-3,4-di-hydro-1H-iso-quinolin-2-yl}-1H-quina-zolin-4-one] showed a melting point of 196 to 200 °C.

`COc1cc2[nH]c(N3CCc4ccc(/N=C(\C)N(C)C)cc4C3)nc(=O)c2c(OC)c1OC` [Example 103, N,N-Dimethyl-N′-[2-(5,6,7-tri-methoxy-4-oxo-1,4-di-hydro-quinazolin-2-yl)-1,2,3,4-tetra-hydro-isoquinolin-7-yl]-acetamidine] yielded a melting point of 115.8 to 120.1 °C.

`COc1cc2c(cc1OC)CN(c1nc(=O)c3c(-c4ccc(F)cc4)c(OC)c(OC)cc3[nH]1)CC2` [Example 120, 2-(6,7-Dimethoxy-3,4-di-hydro-1H-isoquino-lin-2-yl)-5-(4-fluoro-phe-nyl)-6,7-dimethoxy-1H-quina-zolin-4-one]: the melting point lay in the range of 220 to 225 °C.

With `COc1cc2[nH]c(N3CCc4c(cccc4NC(=N)c4ccco4)C3)nc(=O)c2c(OC)c1OC` [Example 117, N-[2-(5,6,7-Trimethoxy-4-oxo-1,4-di-hydro-quina-zolin-2-yl)-1,2,3,4-tetra-hydro-isoquinolin-5-yl]-furan-2-car-boxamidine], the melting point was in the range of 223.9 to 225.9 °C.

For `COc1cc2[nH]c(N3CCN(c4cc(C)ccn4)CC3)nc(=O)c2c(OC)c1OC` [Example 25, 5,6,7-Trimethoxy-2-[4-(4-meth-yl-pyridin-2-yl)-pipe-razin-1-yl]-1H-quina-zolin-4-one], the melting point was 235.3 to 235.5 °C.

In turn, `COc1cc2[nH]c(N3CCN(C4=NCCN4c4cccc(F)c4)CC3)nc(=O)c2c(C)c1OC` returned a melting point of 257.9 to 260 °C.

Compound `COc1cc2[nH]c(N3CCN(c4ccccn4)CC3)nc(=O)c2c(C)c1OC` (as salt: HCl) [Example 40, 6,7-Dimethoxy-5-meth-yl-2-(4-pyridin-2-yl-pipe-razin-1-yl)-1H-quina-zolin-4-one] registered a melting point of 286.6 to 293.1 °C.

The compound `COc1cc2c(cc1OC)CN(c1nc(=O)c3c(O)c(OC)c(OC)cc3[nH]1)CC2` (as salt: HCl) [Example 110, 2-(6,7-Dimethoxy-3,4-di-hydro-1H-isoquinolin-2-yl)-5-hy-droxy-6,7-di-methoxy-1H-quinazolin-4-one] showed a melting point of 255 to 259 °C.

The compound `COc1cc2[nH]c(N3CCN(c4cccc[n+]4[O-])CC3)nc(=O)c2c(OC)c1OC` [Example 26, 5,6,7-Trimethoxy-2-[4-(1-oxy-py-ridin-2-yl)-pipe-razin-1-yl]-1H-quina-zolin-4-one] returned a melting point of 142.8 to 147.2 °C.

On to `COc1cc2[nH]c(N3CCc4c(cccc4C4=NCCN4C)C3)nc(=O)c2c(C)c1OC`, for which the melting point is 246 to 250 °C.

Turning to `COC[C@H]1CCCN1CCC1CCN(c2nc(=O)c3c(OC)c(OC)c(OC)cc3[nH]2)CC1` [Example 70, 5,6,7-Trimeth-oxy-2-{4-[2-((R)-2-meth-oxymethyl-pyr-rolidin-1-yl)-ethyl]-pipe-ridin-1-yl}-1H-quina-zolin-4-one], the melting point is 65 to 79.1 °C.

Compound `CNCC(=O)N(C)Cc1cccc2c1CCN(c1nc(=O)c3c(C)c(OC)c(OC)cc3[nH]1)C2` [Example 8, N-[2-(6,7-Dimethoxy-5-meth-yl-4-oxo-1,4-di-hydro-quina-zolin-2-yl)-1,2,3,4-tetrahydro-iso-quinolin-5-ylmethyl]-N-meth-yl-2-methyl-amino-acetamide] gave a melting point of 208.8 to 212 °C.

Regarding `COc1cc2[nH]c(N3CCC(c4cccc(/N=C(\C)N(C)C)c4)C3)nc(=O)c2c(C)c1OC` (stereo not drawn) [Example 142, N′-{3-[1-(6,7-Di-methoxy-5-methyl-4-oxo-1,4-di-hydro-quina-zolin-2-yl)-pyr-rolidin-3-yl]-phenyl}-N,N-di-methyl-acetamidine], the melting point is 152.2 to 154.4 °C.

The compound `COc1cc2c(cc1OC)CN(c1nc(=O)c3c(OCCO)c(OC)c(OC)cc3[nH]1)CC2` [Example 111, 2-(6,7-Dimethoxy-3,4-di-hydro-1H-isoquinolin-2-yl)-5-(2-hy-droxy-ethoxy)-6,7-di-methoxy-1H-quinazolin-4-one] showed a melting point of 224 to 229 °C.

In the case of `COc1cc2c(cc1OC)CN(c1nc(=O)c3c(OC(C)C)c(OC)c(OC)cc3[nH]1)CC2` (as salt: HCl) [Example 107, 2-(6,7-Dimethoxy-3,4-di-hydro-1H-isoquinolin-2-yl)-5-iso-propoxy-6,7-di-methoxy-1H-quina-zolin-4-one], the melting point fell in the range of 253.3 to 261.9 °C.

In turn, `COc1cc2[nH]c(N3CCc4c(cccc4/N=C(/C)N(C)C)C3)nc(=O)c2c(C)c1OC` [Example F-1, N′-[2-(6,7-Dimethoxy-5-methyl-4-oxo-1,4-dihydro-quinazolin-2-yl)-1,2,3,4-tetrahydro-isoquinolin-5-yl]-N,N-dimethyl-acetamidine] had a melting point of 270.9 to 273.5 °C.

In the case of `COC[C@H]1CCCN1CCC1CCN(c2nc(=O)c3c(C)c(OC)c(OC)cc3[nH]2)CC1` [Example 57, 6,7-Dimethoxy-2-{4-[2-((R)-2-meth-oxymethyl-pyr-rolidin-1-yl)-ethyl]-pipe-ridin-1-yl}-5-meth-yl-1H-quinazolin-4-one], the melting point was in the range of 219 to 221.9 °C.

Turning to `COc1cc2c(cc1OC)CN(c1nc(=O)c3c(C(C)C)c(OC)c(OC)cc3[nH]1)CC2` (as salt: HCl) [Example 119, 2-(6,7-Dimethoxy-3,4-di-hydro-1H-isoquinolin-2-yl)-5-iso-propyl-6,7-di-methoxy-1H-quina-zolin-4-one], the melting point lay within 243 to 244 °C.

With `COc1ccnc(N2CCN(c3nc(=O)c4c(OC)c(OC)c(OC)cc4[nH]3)CC2)c1` [Example 30, 5,6,7-Trimethoxy-2-[4-(4-meth-oxy-pyridin-2-yl)-pipe-razin-1-yl]-1H-quina-zolin-4-one], the melting point lay in the range of 229 to 231 °C.

On to `COCCOc1c(OC)c(OC)cc2[nH]c(N3CCc4cc(OC)c(OC)cc4C3)nc(=O)c12` [Example 105, 2-(6,7-Dimethoxy-3,4-di-hydro-1H-isoquinolin-2-yl)-6,7-di-methoxy-5-(2-meth-oxy-ethoxy)-1H-quina-zolin-4-one], for which the melting point is 202.4 to 204.4 °C.

As to `COc1cc2[nH]c(N3CCN(C(=O)CCC(C)C)CC3)nc(=O)c2c(OC)c1OC.Cl`, the melting point was 198 to 201 °C.

For the compound `COc1cc2[nH]c(N3CCC(OCc4cccc(N(S(C)(=O)=O)S(C)(=O)=O)c4)CC3)nc(=O)c2c(OC)c1OC` [Example 80, N-Methane-sulfonyl-N-{3-[1-(5,6,7-tri-methoxy-4-oxo-1,4-di-hydro-quina-zolin-2-yl)-pipe-ridin-4-yloxy-methyl]-phenyl}-methane-sulfonamide], the melting point lay in the range of 100.7 to 160.4 °C.

Take `COc1cc2[nH]c(N3CCN(c4nccn4C)CC3)nc(=O)c2c(OC)c1OC` [Example 28, 5,6,7-Trimethoxy-2-[4-(1-meth-yl-1H-imidazol-2-yl)-pipe-razin-1-yl]-1H-quina-zolin-4-one]: the melting point was 227 to 229 °C.

Consider `CCN(C)Cc1cccc2c1CCN(c1nc(=O)c3c(OC)c(OC)c(OC)cc3[nH]1)C2` [Example 3, 2-{5-[(Ethyl-methyl-ami-no)-methyl]-3,4-di-hydro-1H-isoquinolin-2-yl}-5,6,7-tri-methoxy-1H-quinazolin-4-one], for which the melting point fell in the range of 214 to 216.9 °C.

In turn, `COc1cc2[nH]c(N3CCc4c(cccc4NC(=N)c4ccco4)C3)nc(=O)c2c(C)c1OC` [Example 124, N-[2-(6,7-Dimethoxy-5-meth-yl-4-oxo-1,4-di-hydro-quinazolin-2-yl)-1,2,3,4-tetra-hydro-iso-quinolin-5-yl]-furan-2-carboxamidine] showed a melting point of 279 to 282 °C.

What is called melting point is the temperature of the solid-liquid transition.
